Laboratory results reported in EP0002259B1, “Hydantoin derivatives and salts thereof, their synthesis and pharmaceutical formulations” (THE WELLCOME FOUNDATION LIMITED, priority 1977, dated 1979).
Each block holds one compound with its values, some of them ahead of it.

What was measured:
[1] = Solubility in volatile solvent (tablet formulation); format: physicochemical; conditions: methanol, ethanol
Description: The compound was dissolved in a volatile solvent. […] The mixture was then pressed to tablets, each 226 mg in weight.

[2] = system: platelets in fresh human platelet rich plasma (PRP); test: Inhibition of platelet aggregation (ADP-stimulated, Born aggregometer), activity compared to PGE1; format: cell-based; conditions: 37°C for 1 minute, ADP 5 µm
Description: Aggregation of platelets in 1 ml of fresh human platelet rich plasma (PRP) was monitored in a Born aggregometer.
The compound to be tested was added to the PRP at the desired concentration, and the resulting mixture incubated at 37°C for 1 minute after which platelet aggregation was stimulated by the addition of adenosine diphosphate (ADP) to a concentration of 5 µm.
The antiaggregatory effect of the compound was assessed by measuring the percentage inhibition of platelet aggregation in the presence of the compound as compared with when it was absent. The percentage inhibitions at various concentrations of hydantoin and prostaglandin E, (PGE,) were established and compared to show activity compared to PGE,.

[3] = system: Male normotensive rats Wistar (Charles River) strain; test: Cardiovascular effects in anaesthetised rats (hypotensive effect compared with prostacyclin); format: in vivo; conditions: intravenous injection in physiological saline
Description: Male normotensive rats Wistar (Charles River) strain, ([…]) were anesthetised (chloroform) prior to cannulation to left femoral vein and anaestesia maintained by intravenous chloralose (60 mg/kg). Pulsatile blood pressure was recorded from the left femoral artery with an electronic transducer (Bell and Howell Type 4-327 L221) and integrated heart rate was measured with a cardiotachometer triggered from the arterial pressure waves.
The test compound (less polar diastereomer of the compounds of Example 2) was administered as a solution in physiological saline by intravenous injection via the femoral cannula. The responses recorded were allowed to return to the preinjection levels between successive administrations.

solubility [1]: soluble in methanol and in ethanol
SMILES: O=C(O)CCCCCCC1C(=O)NC(=S)N1CCC(O)C1CCCCC1 (single isomer, unassigned) [Example 3 less, 5-(6-carboxyhexyl)-l-(3-cyclohexyl-3-hydroxypropyl)-2-thiohydantoin]

SMILES: CCCCCC(O)CCN1C(=S)NC(=O)C1CCCCCCC(=O)O (centres unmarked) [Example 1 more, 5-(6-carboxyhexyl)-1-(3-hydroxyoctyl)-2-thiohydantoin]
Inhibition of Platelet Aggregation (X PGE1) ([2]; activity relative to PGE1): <0,01 X PGE1

SMILES: CC(C)(C)CC(O)CCN1C(=S)NC(=O)C1CCCCCCC(=O)O (centres unmarked) [Example 2 less, 5-(6-carboxyhexyl)-1-(5,5-dimethyl-3-hydroxyhexyl)-2-thiohydantoin]
Inhibition of Platelet Aggregation (X PGE1) ([2]; activity relative to PGE1, listed as 2 less): 0,04 X PGE1 | hypotensive effect, per cent of the hypotensive effect of prostacyclin [3]: less than one

SMILES: CC(C)(C)CC(O)CCN1C(=S)NC(=O)C1CCCCCCC(=O)O (centres unmarked) [Example 2 more, 5-(6-carboxyhexyl)-1-(5,5-dimethyl-3-hydroxyhexyl)-2-thiohydantoin]
Inhibition of Platelet Aggregation (X PGE1) ([2]; activity relative to PGE1, listed as 2 more): 0,01 X PGE1

SMILES: O=C(O)CCCCCCC1C(=O)NC(=S)N1CCC(O)C1CCCC1 (centres unmarked) [Example 5 less, 5-(6-carboxyhexyl)-1-(3-cyclopentyl-3-hydroxypropyl)-2-thiohydantoin]
Inhibition of Platelet Aggregation (X PGE1) ([2]; activity relative to PGE1): 0,03 X PGE1

SMILES: O=C(O)CCC/C=C\CC1C(=O)NC(=S)N1CCC(O)C1CCCCC1 (centres unmarked) [Example 6 less, 5-(6-carboxyhex-2Zenyl)-1-(3-cyclohexyl-3-hydroxypropyl)-2-thiohydantoin]
Inhibition of Platelet Aggregation (X PGE1) ([2]; activity relative to PGE1, listed as 6 less): 0,04 X PGE1

SMILES: O=C(O)CCC/C=C\CC1C(=O)NC(=S)N1CCC(O)C1CCCCC1 (centres unmarked) [Example 6 more, 5-(6-carboxyhex-2Zenyl)-1-(3-cyclohexyl-3-hydroxypropyl)-2-thiohydantoin]
Inhibition of Platelet Aggregation (X PGE1) ([2]; activity relative to PGE1, listed as 6 more): 0,02 X PGE1
